Reference: ChEMBL document CHEMBL1201862, “PubChem BioAssay data set” (2004)
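Interpolation was linear, between the two tested concentrations surrounding the appropriate level; five concentrations were tested over 48 hours in 96-well plates. Abbreviation: GI50, concentration required for 50% inhibition of growth.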 The source made the active and inactive calls. Cut-off read from the data, not from the text of the source: active = GI50 up to about 1.1 µM and inactive = higher.

Legend:
Test in all cases: growth of human tumour cells (NCI), 48 h
HCT-15 = tested on: HCT-15
Hs-578T = tested on: Hs-578T
PC-3 = tested on: PC-3
U-251 = tested on: U-251
M14 = tested on: M14
RPMI-8226 = tested on: RPMI-8226
HCC 2998 = tested on: HCC 2998
HOP-62 = tested on: HOP-62
K562 = tested on: K562
HT-29 = tested on: HT-29
SF-268 = tested on: SF-268
SK-OV-3 = tested on: SK-OV-3
Malme-3M = tested on: Malme-3M
KM12 = tested on: KM12
BT-549 = tested on: BT-549
CAKI-1 = tested on: CAKI-1
OVCAR-3 = tested on: OVCAR-3
NCI-H23 = tested on: NCI-H23
ACHN = tested on: ACHN
SNB-19 = tested on: SNB-19
OVCAR-8 = tested on: OVCAR-8
MCF7 = tested on: MCF7
SK-MEL-2 = tested on: SK-MEL-2
MOLT-4 = tested on: MOLT-4
OVCAR-5 = tested on: OVCAR-5
HL-60 = tested on: HL-60
MDA-MB-435 = tested on: MDA-MB-435
NCI-H522 = tested on: NCI-H522
CCRF-CEM = tested on: CCRF-CEM
SW-620 = tested on: SW-620
UACC-62 = tested on: UACC-62
DU-145 = tested on: DU-145
SF-295 = tested on: SF-295
786-0 = tested on: 786-0
T47D = tested on: T47D
UO-31 = tested on: UO-31
MDA-N = tested on: MDA-N
EKVX = tested on: EKVX
COLO 205 = tested on: COLO 205
NCI/ADR-RES = tested on: NCI/ADR-RES
UACC-257 = tested on: UACC-257
SR = tested on: SR
A549 = tested on: A549
LOX IMVI = tested on: LOX IMVI
SK-MEL-5 = tested on: SK-MEL-5
NCI-H460 = tested on: NCI-H460
SF-539 = tested on: SF-539
HCT-116 = tested on: HCT-116
SK-MEL-28 = tested on: SK-MEL-28
OVCAR-4 = tested on: OVCAR-4
IGROV-1 = tested on: IGROV-1
A498 = tested on: A498
NCI-H226 = tested on: NCI-H226
SNB-75 = tested on: SNB-75
HOP-92 = tested on: HOP-92
TK-10 = tested on: TK-10

`CN(C)C(=O)Oc1ccc(C(=S)Nc2ccccc2)cc1Br` was tested, and the GI50 (HCT-15) was 28.9 µM, the GI50 (Hs-578T) was 8.59 µM (inactive) and the GI50 (PC-3) was 27.7 µM (inactive). For the same molecule, the GI50 (U-251) was 83 µM (inactive), the GI50 (M14) was 18.6 µM (inactive) and the GI50 (RPMI-8226) was 22.2 µM (inactive). The GI50 (HCC 2998) was 33.1 µM (inactive), the GI50 (HOP-62) was 45.1 µM (inactive) and the GI50 (K562) was 18.7 µM (inactive). The GI50 (HT-29) was 21.4 µM (inactive), the GI50 (SF-268) was 6.9 µM (inactive) and the GI50 (SK-OV-3) was > 100 µM (inactive). For the same molecule, the GI50 (Malme-3M) was 33.6 µM (inactive), the GI50 (KM12) was 21.7 µM (inactive) and the GI50 (BT-549) was 31.3 µM (inactive). The GI50 (CAKI-1) was 63.7 µM (inactive), the GI50 (OVCAR-3) was 30.1 µM (inactive) and the GI50 (NCI-H23) was 22.9 µM (inactive). For the same molecule, the GI50 (ACHN) was 30.5 µM (inactive), the GI50 (SNB-19) was 74.6 µM (inactive) and the GI50 (OVCAR-8) was 17.6 µM (inactive). The GI50 (MCF7) was 25.8 µM (inactive), the GI50 (SK-MEL-2) was 21.9 µM (inactive) and the GI50 (MOLT-4) was 13.2 µM (inactive). For the same molecule, the GI50 (OVCAR-5) was 41.9 µM (inactive), the GI50 (HL-60) was 16.8 µM (inactive) and the GI50 (MDA-MB-435) was 19.5 µM (inactive). The GI50 (NCI-H522) was 14.8 µM (inactive), the GI50 (CCRF-CEM) was 21 µM (inactive) and the GI50 (SW-620) was 37.4 µM (inactive). The GI50 (UACC-62) was 20.3 µM (inactive), the GI50 (DU-145) was 54.5 µM (inactive) and the GI50 (SF-295) was 5.11 µM (inactive). For the same molecule, the GI50 (786-0) was 62.8 µM (inactive), the GI50 (T47D) was 25 µM (inactive) and the GI50 (UO-31) was 33.5 µM (inactive). For the same molecule, the GI50 (MDA-N) was 21.7 µM (inactive), the GI50 (EKVX) was 32.5 µM (inactive) and the GI50 (COLO 205) was 24.2 µM (inactive). The GI50 (NCI/ADR-RES) was 20.4 µM (inactive), the GI50 (UACC-257) was 24.7 µM (inactive) and the GI50 (SR) was 16.1 µM (inactive). For the same molecule, the GI50 (A549) was 33 µM (inactive), the GI50 (LOX IMVI) was 20.9 µM (inactive) and the GI50 (SK-MEL-5) was 16.9 µM (inactive). The GI50 (NCI-H460) was 23.1 µM (inactive), the GI50 (SF-539) was 72.3 µM (inactive) and the GI50 (HCT-116) was 34 µM (inactive). The GI50 (SK-MEL-28) was 31.8 µM (inactive), the GI50 (OVCAR-4) was 19.1 µM (inactive) and the GI50 (IGROV-1) was 21 µM (inactive).
In the case of `O=C(O)C1(Cc2ccc3c(c2)CCC3)Cc2cc3c(cc2C1)CCC3`, the GI50 (HCT-15) is reported as greater than 100 µM, the GI50 (Hs-578T) is reported as > 100 µM (inactive) and the GI50 (PC-3) is reported as > 100 µM (inactive). The GI50 (U-251) was > 100 µM (inactive), the GI50 (M14) was > 100 µM (inactive) and the GI50 (RPMI-8226) was > 100 µM (inactive). The GI50 (HCC 2998) was > 100 µM (inactive), the GI50 (A498) was > 100 µM (inactive) and the GI50 (K562) was > 100 µM (inactive). For the same molecule, the GI50 (HT-29) was > 100 µM (inactive), the GI50 (SF-268) was > 100 µM (inactive) and the GI50 (SK-OV-3) was > 100 µM (inactive). The GI50 (Malme-3M) was > 100 µM (inactive), the GI50 (NCI-H226) was > 100 µM (inactive) and the GI50 (KM12) was > 100 µM (inactive). The GI50 (BT-549) was > 100 µM (inactive), the GI50 (SNB-75) was > 100 µM (inactive) and the GI50 (OVCAR-3) was > 100 µM (inactive). For the same molecule, the GI50 (ACHN) was > 100 µM (inactive), the GI50 (SNB-19) was > 100 µM (inactive) and the GI50 (OVCAR-8) was > 100 µM (inactive). The GI50 (MCF7) was > 100 µM (inactive), the GI50 (SK-MEL-2) was > 100 µM (inactive) and the GI50 (MOLT-4) was > 100 µM (inactive). For the same molecule, the GI50 (OVCAR-5) was > 100 µM (inactive), the GI50 (HL-60) was > 100 µM (inactive) and the GI50 (MDA-MB-435) was > 100 µM (inactive). The GI50 (CCRF-CEM) was > 100 µM (inactive), the GI50 (SW-620) was > 100 µM (inactive) and the GI50 (UACC-62) was > 100 µM (inactive). The GI50 (DU-145) was > 100 µM (inactive), the GI50 (786-0) was > 100 µM (inactive) and the GI50 (UO-31) was > 100 µM (inactive). For the same molecule, the GI50 (MDA-N) was > 100 µM (inactive), the GI50 (EKVX) was > 100 µM (inactive) and the GI50 (COLO 205) was > 100 µM (inactive). For the same molecule, the GI50 (HOP-92) was > 100 µM (inactive), the GI50 (SR) was > 100 µM (inactive) and the GI50 (A549) was > 100 µM (inactive). The GI50 (LOX IMVI) was > 100 µM (inactive), the GI50 (SK-MEL-5) was > 100 µM (inactive) and the GI50 (SF-539) was > 100 µM (inactive). For the same molecule, the GI50 (HCT-116) was > 100 µM (inactive), the GI50 (SK-MEL-28) was > 100 µM (inactive) and the GI50 (TK-10) was > 100 µM (inactive). The GI50 (OVCAR-4) was > 100 µM (inactive) and the GI50 (IGROV-1) was > 100 µM (inactive).
